Assay results from patent publication US11253517B2, “Small molecule regulators of steroid receptor coactivators and methods of use thereof” (BAYLOR COLLEGE OF MEDICINE, priority 2016, dated 2022).

Assays:
Experiment in all cases: Kinase-Glo Luminescent Kinase Assay
Type in all cases: biochemical
PKCa = target: T1, PKCa (Homo sapiens, UniProt P17252)
T1 construct: purchased Promega
Procedure: (§1) SI-12 was also tested for its ability to disrupt kinase activity. The effects of the compound were tested on a panel of 24 kinases using a Kinase-Glo Luminescent Kinase Assay system (Promega; Madison, Wis.). SI-12 was tested, at concentrations of 1000 nM, 50 nM, and 5 nM, for its ability to interfere with recombinant kinases in the assay system. The amount of ATP to ADP conversion in the presence of SI-12 was compared to a DMSO vehicle control. The values shown in Table 3 represent the percentage of kinase activity compared to a DMSO vehicle control.
(§2) In Table 3, “−” represents less than 20% inhibition; “+” represents from 20% to 40% inhibition; “++” represents from 40% to 60% inhibition; and “+++” represents greater than 60% inhibition.

AMPK A1 /B1/G2 = target: T2, AMPK A1 /B1/G2 (Homo sapiens, UniProt Q13131)
T2 construct: purchased Promega
Procedure: as §1, §2

CAMK4 = target: T3, CAMK4 (Homo sapiens, UniProt Q16566)
T3 construct: purchased Promega
Procedure: as §1, §2

MINK1 = target: T4, MINK1 (Homo sapiens, UniProt Q8N4C8)
T4 construct: purchased Promega
Procedure: as §1, §2

Aurora A = target: T5, Aurora A (Homo sapiens, UniProt O14965)
T5 construct: purchased Promega
T5 sequence (O14965 1-403): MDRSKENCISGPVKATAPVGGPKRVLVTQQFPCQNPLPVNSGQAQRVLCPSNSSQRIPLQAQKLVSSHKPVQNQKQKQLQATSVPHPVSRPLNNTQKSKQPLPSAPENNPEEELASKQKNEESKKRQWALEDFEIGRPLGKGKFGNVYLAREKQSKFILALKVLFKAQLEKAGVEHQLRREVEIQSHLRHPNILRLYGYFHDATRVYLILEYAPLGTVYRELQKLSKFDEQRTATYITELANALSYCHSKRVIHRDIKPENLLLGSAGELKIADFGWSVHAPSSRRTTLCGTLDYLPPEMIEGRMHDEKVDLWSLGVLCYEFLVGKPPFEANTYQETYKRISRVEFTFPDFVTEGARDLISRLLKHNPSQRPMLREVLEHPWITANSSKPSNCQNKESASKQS
Procedure: as §1, §2

TAK1-TAB1 = target: T6, TAK1-TAB1 (Homo sapiens, UniProt O43318)
T6 construct: purchased Promega
T6 sequence (O43318 with tags, fused parts or gaps limits assumed): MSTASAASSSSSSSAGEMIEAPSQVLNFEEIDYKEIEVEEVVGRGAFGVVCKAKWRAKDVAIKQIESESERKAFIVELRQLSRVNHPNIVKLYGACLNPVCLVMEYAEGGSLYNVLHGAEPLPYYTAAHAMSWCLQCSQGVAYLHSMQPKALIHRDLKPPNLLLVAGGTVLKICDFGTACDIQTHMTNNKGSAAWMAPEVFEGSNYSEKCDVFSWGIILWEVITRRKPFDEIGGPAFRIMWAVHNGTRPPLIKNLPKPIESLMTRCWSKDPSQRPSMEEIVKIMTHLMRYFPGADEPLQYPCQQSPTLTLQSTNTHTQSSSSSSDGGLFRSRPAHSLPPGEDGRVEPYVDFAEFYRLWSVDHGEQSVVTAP
Procedure: as §1, §2

JAK3 = target: T7, JAK3 (Homo sapiens, UniProt P52333)
T7 construct: purchased Promega
T7 sequence (P52333 1-1124): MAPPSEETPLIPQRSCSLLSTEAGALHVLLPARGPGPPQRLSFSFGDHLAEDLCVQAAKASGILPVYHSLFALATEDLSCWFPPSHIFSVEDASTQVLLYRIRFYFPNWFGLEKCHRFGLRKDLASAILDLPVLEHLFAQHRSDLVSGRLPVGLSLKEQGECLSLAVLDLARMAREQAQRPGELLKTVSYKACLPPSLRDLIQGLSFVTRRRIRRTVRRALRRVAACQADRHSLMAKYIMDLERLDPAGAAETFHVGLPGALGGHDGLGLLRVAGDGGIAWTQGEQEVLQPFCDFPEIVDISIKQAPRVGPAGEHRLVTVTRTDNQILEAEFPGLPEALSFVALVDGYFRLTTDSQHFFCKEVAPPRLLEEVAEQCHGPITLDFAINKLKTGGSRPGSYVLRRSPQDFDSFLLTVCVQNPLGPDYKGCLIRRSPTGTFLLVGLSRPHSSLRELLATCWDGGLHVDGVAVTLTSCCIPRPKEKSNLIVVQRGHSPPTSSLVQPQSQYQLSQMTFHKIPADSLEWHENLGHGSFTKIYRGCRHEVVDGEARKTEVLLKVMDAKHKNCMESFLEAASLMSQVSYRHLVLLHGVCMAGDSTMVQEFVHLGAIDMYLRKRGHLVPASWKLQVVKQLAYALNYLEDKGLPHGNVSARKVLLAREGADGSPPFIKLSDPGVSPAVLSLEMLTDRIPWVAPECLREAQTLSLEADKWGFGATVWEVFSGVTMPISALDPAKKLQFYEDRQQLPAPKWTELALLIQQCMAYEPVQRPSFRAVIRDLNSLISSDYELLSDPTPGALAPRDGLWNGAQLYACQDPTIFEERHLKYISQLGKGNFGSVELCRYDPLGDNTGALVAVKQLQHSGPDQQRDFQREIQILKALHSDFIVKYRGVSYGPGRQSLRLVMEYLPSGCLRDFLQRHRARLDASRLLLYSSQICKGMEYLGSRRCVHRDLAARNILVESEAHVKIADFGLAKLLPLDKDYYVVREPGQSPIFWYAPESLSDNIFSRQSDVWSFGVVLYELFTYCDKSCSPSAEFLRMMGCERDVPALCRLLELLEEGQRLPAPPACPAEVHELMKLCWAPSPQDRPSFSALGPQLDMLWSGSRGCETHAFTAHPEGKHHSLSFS
Procedure: as §1, §2

GSK3B = target: T8, GSK3B (Homo sapiens, UniProt P49841)
T8 construct: purchased Promega
Procedure: as §1, §2

CK1a 1 = target: T9, CK1a 1 (Homo sapiens, UniProt P48729)
T9 construct: purchased Promega
Procedure: as §1, §2

T4 sequence (Q8N4C8 whole entry): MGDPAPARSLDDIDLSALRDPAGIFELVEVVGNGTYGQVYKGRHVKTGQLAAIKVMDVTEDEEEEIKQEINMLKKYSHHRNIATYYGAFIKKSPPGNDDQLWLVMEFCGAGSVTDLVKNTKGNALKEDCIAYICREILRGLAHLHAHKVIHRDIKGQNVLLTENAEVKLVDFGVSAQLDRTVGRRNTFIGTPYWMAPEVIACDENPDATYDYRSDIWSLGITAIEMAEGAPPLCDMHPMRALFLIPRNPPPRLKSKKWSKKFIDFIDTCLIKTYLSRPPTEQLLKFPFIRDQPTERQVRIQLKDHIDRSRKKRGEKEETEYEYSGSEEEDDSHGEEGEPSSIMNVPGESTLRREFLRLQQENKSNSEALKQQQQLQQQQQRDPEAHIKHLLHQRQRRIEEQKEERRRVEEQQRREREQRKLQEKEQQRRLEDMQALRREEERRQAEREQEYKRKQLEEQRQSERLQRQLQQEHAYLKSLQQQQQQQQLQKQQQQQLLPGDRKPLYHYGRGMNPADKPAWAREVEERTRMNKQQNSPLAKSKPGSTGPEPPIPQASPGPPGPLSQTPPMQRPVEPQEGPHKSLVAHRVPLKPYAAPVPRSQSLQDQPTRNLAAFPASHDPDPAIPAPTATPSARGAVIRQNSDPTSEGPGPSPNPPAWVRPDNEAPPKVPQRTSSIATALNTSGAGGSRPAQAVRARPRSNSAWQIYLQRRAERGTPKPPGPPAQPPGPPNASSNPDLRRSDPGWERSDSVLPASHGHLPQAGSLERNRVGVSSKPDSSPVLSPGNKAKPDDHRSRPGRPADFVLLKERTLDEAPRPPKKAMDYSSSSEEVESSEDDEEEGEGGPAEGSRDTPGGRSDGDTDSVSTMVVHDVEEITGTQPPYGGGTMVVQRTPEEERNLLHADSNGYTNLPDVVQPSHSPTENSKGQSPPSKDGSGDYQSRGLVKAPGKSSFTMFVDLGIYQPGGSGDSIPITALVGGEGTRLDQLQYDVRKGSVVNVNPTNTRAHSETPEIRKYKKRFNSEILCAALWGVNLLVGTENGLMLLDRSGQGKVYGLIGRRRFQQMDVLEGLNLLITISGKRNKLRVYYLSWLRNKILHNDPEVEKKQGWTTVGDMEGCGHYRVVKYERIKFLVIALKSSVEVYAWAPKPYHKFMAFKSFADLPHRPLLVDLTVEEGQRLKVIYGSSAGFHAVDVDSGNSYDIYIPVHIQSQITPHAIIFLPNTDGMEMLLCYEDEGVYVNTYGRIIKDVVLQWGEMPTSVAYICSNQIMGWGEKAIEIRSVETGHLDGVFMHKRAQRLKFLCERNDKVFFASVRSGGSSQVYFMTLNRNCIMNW
T3 sequence (Q16566 whole entry): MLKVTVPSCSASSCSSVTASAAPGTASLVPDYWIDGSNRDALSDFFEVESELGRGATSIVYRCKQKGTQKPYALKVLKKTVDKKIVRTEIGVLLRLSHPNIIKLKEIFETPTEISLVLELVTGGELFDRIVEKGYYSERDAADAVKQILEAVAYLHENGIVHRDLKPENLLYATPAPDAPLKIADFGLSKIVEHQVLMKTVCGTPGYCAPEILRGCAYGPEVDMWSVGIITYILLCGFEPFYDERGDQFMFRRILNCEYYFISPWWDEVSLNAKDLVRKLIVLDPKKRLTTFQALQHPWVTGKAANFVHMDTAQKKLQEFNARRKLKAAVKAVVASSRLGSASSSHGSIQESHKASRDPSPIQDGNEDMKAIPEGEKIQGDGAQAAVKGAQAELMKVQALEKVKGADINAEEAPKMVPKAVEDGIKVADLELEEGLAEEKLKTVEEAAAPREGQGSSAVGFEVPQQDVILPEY
T9 sequence (P48729 whole entry): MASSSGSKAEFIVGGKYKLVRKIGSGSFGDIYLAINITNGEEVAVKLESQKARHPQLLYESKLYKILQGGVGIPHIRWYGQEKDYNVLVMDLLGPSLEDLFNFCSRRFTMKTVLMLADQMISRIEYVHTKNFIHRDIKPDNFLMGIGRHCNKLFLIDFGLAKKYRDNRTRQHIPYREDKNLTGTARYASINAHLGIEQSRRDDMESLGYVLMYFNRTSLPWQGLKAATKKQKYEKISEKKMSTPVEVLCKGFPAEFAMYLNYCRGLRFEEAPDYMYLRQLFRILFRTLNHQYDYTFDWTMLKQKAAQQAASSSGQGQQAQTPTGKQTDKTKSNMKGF
T8 sequence (P49841 whole entry): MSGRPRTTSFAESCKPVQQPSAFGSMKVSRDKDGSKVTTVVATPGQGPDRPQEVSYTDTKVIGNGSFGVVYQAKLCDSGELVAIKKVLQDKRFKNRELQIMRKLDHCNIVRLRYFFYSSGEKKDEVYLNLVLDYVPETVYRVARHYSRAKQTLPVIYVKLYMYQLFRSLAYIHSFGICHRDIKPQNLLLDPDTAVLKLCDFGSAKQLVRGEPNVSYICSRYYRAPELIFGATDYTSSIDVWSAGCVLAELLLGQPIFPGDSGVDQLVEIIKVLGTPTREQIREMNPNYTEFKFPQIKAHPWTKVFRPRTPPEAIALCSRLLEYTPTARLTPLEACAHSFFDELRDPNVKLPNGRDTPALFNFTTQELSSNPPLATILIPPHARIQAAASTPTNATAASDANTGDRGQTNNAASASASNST
T2 sequence (Q13131 whole entry): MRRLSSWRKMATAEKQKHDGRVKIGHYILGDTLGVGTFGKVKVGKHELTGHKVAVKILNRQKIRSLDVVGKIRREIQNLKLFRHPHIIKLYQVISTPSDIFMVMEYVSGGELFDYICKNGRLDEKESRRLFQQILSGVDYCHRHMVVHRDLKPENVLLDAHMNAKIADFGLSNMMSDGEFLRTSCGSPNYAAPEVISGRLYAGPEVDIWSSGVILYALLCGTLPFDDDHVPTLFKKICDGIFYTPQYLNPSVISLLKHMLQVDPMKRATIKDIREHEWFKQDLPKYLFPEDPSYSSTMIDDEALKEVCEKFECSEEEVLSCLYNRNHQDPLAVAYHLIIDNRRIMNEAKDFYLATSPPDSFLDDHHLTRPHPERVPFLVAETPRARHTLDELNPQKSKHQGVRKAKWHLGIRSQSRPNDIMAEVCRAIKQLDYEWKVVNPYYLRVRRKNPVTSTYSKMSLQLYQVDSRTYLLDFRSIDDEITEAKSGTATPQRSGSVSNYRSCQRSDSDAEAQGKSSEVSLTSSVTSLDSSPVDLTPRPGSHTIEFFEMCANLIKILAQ
T2 sequence (Q9Y478 whole entry partner): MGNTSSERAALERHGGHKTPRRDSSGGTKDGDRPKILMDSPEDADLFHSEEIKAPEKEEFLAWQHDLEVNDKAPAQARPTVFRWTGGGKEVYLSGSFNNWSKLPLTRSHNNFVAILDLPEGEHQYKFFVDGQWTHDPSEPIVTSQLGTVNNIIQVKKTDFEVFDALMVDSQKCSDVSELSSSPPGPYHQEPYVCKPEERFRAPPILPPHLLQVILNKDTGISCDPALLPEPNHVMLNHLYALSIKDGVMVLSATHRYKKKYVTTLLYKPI
T2 sequence (Q9UGJ0 whole entry partner): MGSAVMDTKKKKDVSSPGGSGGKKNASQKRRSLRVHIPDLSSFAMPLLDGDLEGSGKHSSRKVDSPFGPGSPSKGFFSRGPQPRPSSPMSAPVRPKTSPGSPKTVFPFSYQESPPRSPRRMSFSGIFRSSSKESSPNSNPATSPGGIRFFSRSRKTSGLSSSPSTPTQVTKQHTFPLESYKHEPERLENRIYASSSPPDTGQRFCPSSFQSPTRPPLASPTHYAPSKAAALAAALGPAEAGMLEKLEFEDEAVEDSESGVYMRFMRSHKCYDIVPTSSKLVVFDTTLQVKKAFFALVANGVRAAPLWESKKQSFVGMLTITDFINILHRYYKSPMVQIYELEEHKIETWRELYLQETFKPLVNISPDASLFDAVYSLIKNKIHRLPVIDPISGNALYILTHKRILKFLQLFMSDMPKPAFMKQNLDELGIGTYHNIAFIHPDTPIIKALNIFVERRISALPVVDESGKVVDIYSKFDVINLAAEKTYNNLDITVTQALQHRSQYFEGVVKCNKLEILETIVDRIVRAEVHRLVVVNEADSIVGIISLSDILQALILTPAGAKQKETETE

CC(=NNc1nc2cc(F)c(F)cc2n1C)c1ccc(F)cn1 [SI-12]
− (less than 20% inhibition): PKCa kinase inhibition (PKCa; 5 nM) | PKCa kinase inhibition (PKCa; 50 nM) | PKCa kinase inhibition (PKCa; 1000 nM) | AMPK A1 /B1/G2 kinase inhibition (AMPK A1 /B1/G2; 5 nM) | AMPK A1 /B1/G2 kinase inhibition (AMPK A1 /B1/G2; 50 nM) | AMPK A1 /B1/G2 kinase inhibition (AMPK A1 /B1/G2; 1000 nM) | CAMK4 kinase inhibition (CAMK4; 5 nM) | CAMK4 kinase inhibition (CAMK4; 50 nM) | CAMK4 kinase inhibition (CAMK4; 1000 nM) | MINK1 kinase inhibition (MINK1; 5 nM) | MINK1 kinase inhibition (MINK1; 50 nM) | MINK1 kinase inhibition (MINK1; 1000 nM) | Aurora A kinase inhibition (Aurora A; 5 nM) | Aurora A kinase inhibition (Aurora A; 50 nM) | Aurora A kinase inhibition (Aurora A; 1000 nM) | TAK1-TAB1 kinase inhibition (TAK1-TAB1; 5 nM) | TAK1-TAB1 kinase inhibition (TAK1-TAB1; 50 nM) | TAK1-TAB1 kinase inhibition (TAK1-TAB1; 1000 nM) | JAK3 kinase inhibition (JAK3; 5 nM) | GSK3B kinase inhibition (GSK3B; 5 nM) | GSK3B kinase inhibition (GSK3B; 50 nM) | GSK3B kinase inhibition (GSK3B; 1000 nM) | CK1a 1 kinase inhibition (CK1a 1; 5 nM) | CK1a 1 kinase inhibition (CK1a 1; 50 nM) | CK1a 1 kinase inhibition (CK1a 1; 1000 nM)
+ (from 20% to 40% inhibition): JAK3 kinase inhibition (JAK3; 50 nM) | JAK3 kinase inhibition (JAK3; 1000 nM)
